Among the data in US10882856B2 (BeiGene, Ltd., priority 2017, dated 2021) are EC50 and IC50 values, retold here.

One may read the EC50 as the concentration that produces a half-maximal response. Low readings indicate higher potency in that assay, high ones lower potency in that assay. In general, IC50 refers to the concentration that inhibits the measured activity by half.

Assay [1] deals with T1, cellular TDO2 in HEK293-TDO2 cells (Homo sapiens, UniProt P48775).
T1 construct: expressed in transfected cells; host or cells: HEK293 (ATCC), stably transfected
The assay can be described thus: 293-TDO2 cell-based assay (Kyn colorimetric). Conditions: 48 hours of incubation. The essentials:
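Kyn formed from L-Trp was read colorimetrically at 480 nm (TCA deproteinisation, then 2% 4-(dimethylamino)benzaldehyde). Compounds were added to 293-TDO2 cells 4 h post-seeding and left 48 h at 37° C. A four-parameter logistic model gave IC50 values.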

The target in assay [2] is T2, IDO1 (Homo sapiens, UniProt P14902). The assay can be described thus: Hela cell-based IDO1 assay. The settings on record: Hela cells. The essentials: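 Kynurenine was measured at 480 nm in trichloroacetic acid-deproteinised supernatant after adding 2% 4-(dimethylamino)benzaldehyde. This supernatant came from HeLa cells seeded at 8000 per well in 96-well plates in phenol red-free DMEM with 10% FBS and, from 4 hours after seeding, exposed for 48 hours at 37 °C, 5% CO2 to DMSO-diluted compound dilutions, IFN-γ (final 100 ng/mL) and 0.4 mM L-Trp. The resulting data were fitted with a four-parameter logistic model in XLfit. Potency was taken from those fits.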

Assay [3] deals with T2, IDO1. Briefly: IDO1 enzymatic assay. The assay is classed as biochemical. The arrangement: His tag (N); made in house; host or cells: E. coli. The settings on record: read-out: Enzyme IC50 IDO1. Put shortly: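 Assays were run in 50 mM potassium phosphate pH 7.5 with 0.1% BSA for 1.5 hours at 24 °C. Each contained 50 nM E. coli-purified, N-terminally His-tagged IDO1, compound, 1.3 mM D-tryptophan, 5 mM L-ascorbic acid, methylene blue and 0.4 mg/mL catalase. IC50 was calculated from remaining enzyme activity across a rising compound series, with activity taken as the slope of N'-formylkynurenine formation read continuously at 321 nm for 1 hour.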

The next assay concerns the target T3, TDO (Homo sapiens, UniProt P48775).
T3 construct: His tag (C); made in house; host or cells: E. coli
Briefly: TDO enzymatic assay. Type of assay: biochemical. The settings on record: read-out: Enzyme IC50 TDO. Put shortly:
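Recombinant C-terminally His-tagged TDO purified from E. coli (100 nM) was tested with 0.5 mM L-tryptophan (Km concentration). Otherwise the IDO1 enzymatic set-up was used: ascorbic acid, methylene blue, catalase, and potassium phosphate pH 7.5 with BSA, incubated 1.5 hours. N'-formylkynurenine absorbance was read continuously at 321 nm, and activity was taken as the slope. IC50 was calculated from remaining enzyme activity across increasing compound concentrations.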

T2 sequence (P14902 whole entry): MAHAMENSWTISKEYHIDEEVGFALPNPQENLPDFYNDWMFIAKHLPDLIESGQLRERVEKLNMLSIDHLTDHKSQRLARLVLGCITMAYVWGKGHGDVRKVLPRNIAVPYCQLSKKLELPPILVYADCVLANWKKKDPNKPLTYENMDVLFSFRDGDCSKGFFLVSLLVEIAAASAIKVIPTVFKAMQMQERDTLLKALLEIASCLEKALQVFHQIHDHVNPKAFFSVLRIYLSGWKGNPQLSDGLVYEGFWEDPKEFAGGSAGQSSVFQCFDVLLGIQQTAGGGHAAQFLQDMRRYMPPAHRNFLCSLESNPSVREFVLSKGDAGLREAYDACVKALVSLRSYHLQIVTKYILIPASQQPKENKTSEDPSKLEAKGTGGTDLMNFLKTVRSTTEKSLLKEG
T3 sequence (P48775 whole entry): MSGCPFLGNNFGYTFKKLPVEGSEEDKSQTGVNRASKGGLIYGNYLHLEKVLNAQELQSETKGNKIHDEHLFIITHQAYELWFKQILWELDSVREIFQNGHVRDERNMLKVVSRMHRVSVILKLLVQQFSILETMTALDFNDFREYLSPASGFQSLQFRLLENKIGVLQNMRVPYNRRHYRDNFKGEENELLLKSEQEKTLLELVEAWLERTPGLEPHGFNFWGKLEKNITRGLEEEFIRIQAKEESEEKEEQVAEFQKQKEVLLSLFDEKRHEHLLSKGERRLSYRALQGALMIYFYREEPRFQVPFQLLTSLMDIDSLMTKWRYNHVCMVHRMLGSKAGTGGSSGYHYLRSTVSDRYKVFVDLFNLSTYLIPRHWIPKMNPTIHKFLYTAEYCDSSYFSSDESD
T1 sequence (P48775 whole entry): as above

Take `O[C@H](c1c(C2CC2)ccn2cncc12)[C@H]1CC[C@H](c2ccc(OC(F)(F)F)cc2)CC1` (single isomer, unassigned) [Example C105a]: the EC50 is greater than 10000 nM in assay [1] and 1140 nM at IDO1 [2]. For the same compound, the figures for the IC50 on IDO1 [3] and at TDO were 48 nM and 9100 nM, respectively.

For the compound `N#Cc1ccc([C@H]2CC[C@H](C(O)c3c(C4CC4)ccn4cncc34)CC2)cc1` (single isomer, unassigned) [Example C106a], the EC50 in assay [1] is greater than 10000 nM; on IDO1 [2], 141 nM. Further, the IC50 amounted to 20 nM on IDO1 [3] and 5200 nM at TDO.

`O[C@H](c1c(C2CC2)ccn2cncc12)[C@H]1CC[C@H](c2ccc(F)cc2)CC1` (single isomer, unassigned) [Example C107a]: the EC50 in assay [1] was greater than 10000 nM; on IDO1 [2] it was 109 nM. For the same compound, the IC50 stood at 31 nM on IDO1 [3] and 6500 nM at TDO.

As for `O[C@H](c1c(C2CC2)ccn2cncc12)[C@H]1CC[C@H](c2ccccc2F)CC1` (single isomer, unassigned) [Example C108a], the results for the EC50 (in assay [1]; at IDO1 [2]) were greater than 10000 nM and 112 nM, respectively. The IC50 was determined as 28 nM on IDO1 [3] and 5100 nM at TDO.

`O[C@H](c1c(C2CC2)ccn2cncc12)[C@H]1CC[C@H](c2cccc(F)c2)CC1` (single isomer, unassigned) [Example C109a]: the EC50 was greater than 10000 nM in assay [1] and 49 nM on IDO1 [2]. The values for the IC50 at IDO1 [3] and on TDO were 43 nM and 8500 nM, respectively.

On to `Cc1ccc([C@H]2CC[C@H]([C@H](O)c3c(C4CC4)ccn4cncc34)CC2)cc1` (single isomer, unassigned) [Example C110a], for which the EC50 in assay [1] is greater than 10000 nM; at IDO1 [2] it was 283 nM. The figures for the IC50 on IDO1 [3] and at TDO were 35 nM and 21000 nM, respectively.

For `Cc1cccc([C@H]2CC[C@H]([C@H](O)c3c(C4CC4)ccn4cncc34)CC2)c1` (single isomer, unassigned) [Example C111a], the EC50 is greater than 10000 nM in assay [1] and 131 nM at IDO1 [2]. The IC50 was found to be 28 nM at IDO1 [3] and 8000 nM at TDO.

For `Cc1ccccc1[C@H]1CC[C@H]([C@H](O)c2c(C3CC3)ccn3cncc23)CC1` (single isomer, unassigned) [Example C112a], the EC50 in assay [1] was greater than 10000 nM; at IDO1 [2], 183 nM. Also, the IC50 on IDO1 [3] was 40 nM; on TDO, 5100 nM.

With `COc1ccccc1[C@H]1CC[C@H]([C@H](O)c2c(C3CC3)ccn3cncc23)CC1` (single isomer, unassigned) [Example C113a], the EC50 is greater than 10000 nM in assay [1] and 89 nM at IDO1 [2]. For the same compound, the IC50 is 28 nM at IDO1 [3] and 5700 nM on TDO.

Take `COc1cccc([C@H]2CC[C@H]([C@H](O)c3c(C4CC4)ccn4cncc34)CC2)c1` (single isomer, unassigned) [Example C114a]: the EC50 in assay [1] was greater than 10000 nM; on IDO1 [2], 180 nM. The IC50 on IDO1 [3] is 27 nM; at TDO, 8300 nM.

On to `O[C@H](c1c(C2CC2)ccn2cncc12)[C@H]1CC[C@H](c2ccc(C(F)(F)F)cc2)CC1` (single isomer, unassigned) [Example C115a], for which the EC50 in assay [1] is greater than 10000 nM; on IDO1 [2], 2400 nM. Further, the IC50 on IDO1 [3] was 67 nM; on TDO, 11000 nM.

Consider `O[C@H](c1c(C2CC2)ccn2cncc12)[C@H]1CC[C@H](c2ccccc2C(F)(F)F)CC1` (single isomer, unassigned) [Example C116a], for which the EC50 is greater than 10000 nM in assay [1] and 500 nM at IDO1 [2]. The IC50 stood at 77 nM on IDO1 [3] and 6300 nM on TDO.

Regarding `O[C@H](c1c(C2CC2)ccn2cncc12)[C@H]1CC[C@H](c2ccc(OC3COC3)cc2)CC1` (single isomer, unassigned) [Example C117a], the EC50 in assay [1] is greater than 10000 nM; on IDO1 [2], 131 nM. In addition, the IC50 on IDO1 [3] was determined as 15 nM; on TDO, 3400 nM.

For `O[C@H](c1c(C2CC2)ccn2cncc12)[C@H]1CC[C@H](c2ccc(OC3CCCC3)cc2)CC1` (single isomer, unassigned) [Example C118a], the concentration giving a half-maximal response (EC50) was greater than 10000 nM in assay [1] and 147 nM at IDO1 [2]. Moreover, the IC50 at IDO1 [3] stood at 63 nM; at TDO, 6200 nM.

For the compound `O[C@H](c1c(C2CC2)ccn2cncc12)[C@H]1CC[C@H](c2ccc(C(F)(F)F)nc2)CC1` (single isomer, unassigned) [Example C120a], the EC50 is greater than 10000 nM in assay [1] and 1100 nM on IDO1 [2]. Besides, the results for the IC50 on IDO1 [3] and on TDO were 39 nM and 7400 nM, respectively.

Turning to `O[C@H](c1c(C2CC2)ccn2cncc12)[C@H]1CC[C@H](c2cccc3ccccc32)CC1` (single isomer, unassigned) [Example C121a], the EC50 is greater than 10000 nM in assay [1] and 59 nM on IDO1 [2]. In addition, the figures for the IC50 on IDO1 [3] and on TDO were 39 nM and 3600 nM, respectively.

For `O[C@H](c1c(C2CC2)ccc2cncn12)[C@H]1CC[C@H](c2ccccc2)CC1` (single isomer, unassigned) [Example D101a], the concentration giving a half-maximal response (EC50) in assay [1] was greater than 10000 nM; at IDO1 [2] it was 35 nM. Further, the IC50 at IDO1 [3] came to 14 nM; on TDO, 9200 nM.

As for `COc1ccc([C@H]2CC[C@H]([C@H](O)c3c(C4CC4)ccc4cncn34)CC2)cc1` (single isomer, unassigned) [Example D102a], the EC50 in assay [1] was greater than 10000 nM; at IDO1 [2] it was 29 nM. Also, the IC50 on IDO1 [3] is 14 nM; at TDO, 5300 nM.

Turning to `O[C@H](c1c(C2CC2)ccc2cncn12)[C@H]1CC[C@H](c2ccc(F)cc2)CC1` (single isomer, unassigned) [Example D104a], the EC50 in assay [1] is greater than 10000 nM; at IDO1 [2] it was 23 nM. For the same compound, the IC50 came to 18 nM on IDO1 [3] and 7500 nM at TDO.

As for `O[C@H](c1c(C2CC2)ccc2cncn12)[C@H]1CC[C@H](c2ccc(OC(F)(F)F)cc2)CC1` (single isomer, unassigned) [Example D105a], the EC50 in assay [1] is greater than 10000 nM; on IDO1 [2] it was 631 nM. Further, the IC50 on IDO1 [3] is 44 nM; on TDO it was 11000 nM.

As to `Oc1ccc([C@H]2CC[C@H](C(O)c3c(C4CC4)ccc4cncn34)CC2)cc1` (single isomer, unassigned) [Example D106a], the EC50 in assay [1] is greater than 10000 nM; at IDO1 [2], 21 nM. The figures for the IC50 on IDO1 [3] and at TDO were 11 nM and 4000 nM, respectively.

As to `N#Cc1ccc([C@H]2CC[C@H]([C@H](O)c3c(C4CC4)ccc4cncn34)CC2)cc1` (single isomer, unassigned) [Example D110a], the EC50 in assay [1] was greater than 10000 nM; on IDO1 [2] it was 186 nM. In addition, the IC50 was determined as 16 nM at IDO1 [3] and 6400 nM at TDO.

Consider `OC(c1c(C2CC2)ccc2cncn12)[C@H]1CC[C@H](c2ccc(OC3CCOCC3)cc2)CC1` (single isomer, unassigned) [Example D114c], for which the values for the EC50 (in assay [1]; on IDO1 [2]) were greater than 10000 nM and 67 nM, respectively. Also, the IC50 at IDO1 [3] is 17 nM; at TDO, 5600 nM.

`CC(C)c1ccc2cncn2c1[C@@H](O)[C@H]1CC[C@H](c2ccc(Cl)cc2)CC1` (single isomer, unassigned) [Example D115a]: the EC50 in assay [1] is greater than 10000 nM; on IDO1 [2] it was 83 nM. In addition, the IC50 worked out at 34 nM at IDO1 [3] and 10000 nM at TDO.

As to `O[C@H](c1c(C2CC2)ccc2cncn12)[C@H]1CC[C@H](c2cccc(Cl)c2)CC1` (single isomer, unassigned) [Example D116a], the EC50 in assay [1] was greater than 10000 nM; at IDO1 [2] it was 43 nM. Moreover, the IC50 on IDO1 [3] was determined as 15 nM; on TDO, 9400 nM.

With `O[C@H](c1c(C2CC2)ccc2cncn12)[C@H]1CC[C@H](c2ccc(Br)cc2)CC1` (single isomer, unassigned) [Example D118a], the EC50 in assay [1] was greater than 10000 nM; at IDO1 [2], 306 nM. The IC50 at IDO1 [3] stood at 25 nM; on TDO it was 7700 nM.

As to `O[C@H](c1c(C2CC2)ccc2cncn12)[C@H]1CC[C@H](c2ccc(-c3ccccc3)cc2)CC1` (single isomer, unassigned) [Example D119a], the EC50 was greater than 10000 nM in assay [1] and 344 nM at IDO1 [2]. Further, the IC50 was determined as 34 nM on IDO1 [3] and 5100 nM on TDO.

Consider `O[C@H](c1c(C2CC2)ccc2cncn12)[C@H]1CC[C@H](c2ccc(Oc3ccccc3)cc2)CC1` (single isomer, unassigned) [Example D120a], for which the EC50 in assay [1] was greater than 10000 nM; on IDO1 [2], 370 nM. Also, the IC50 at IDO1 [3] amounted to 80 nM; at TDO, 6700 nM.
